pIC50: −log10 of the molar value. Read-outs that look alike come from different tables or passages of the source.
Experiments:
DNMT1 = DNMT1 protein levels by western blot in drug-treated KG1a cells; type: cell-based, human
Description: Cells were incubated with drugs for the indicated times and analyzed by western blot. (*ns indicates a non-specific band used as a loading control).

[1] = Stability in phosphate buffered saline by reverse phase HPLC (FIG. 4); type: physicochemical; settings: PBS pH 7.4, 100 μM; for half-life at 100 μM: phosphate buffered saline, samples at 2, 20 and 90 hours
Description: One of the primary problems of the currently clinically used DNA hypomethylators 5-aza-dCyd and 5-azacytidine is the rapid degradation of these compounds by ring opening of the 5-azacytosine ring in aqueous solutions. Whether a 4′-thio modification would enhance the stability of 5-azacytosine relative to the 4′-oxonucleoside was tested (FIG. 4). In side-by-side experiments, the compounds were dissolved in PBS (phosphate buffered solution, pH 7.4) at a concentration of 100 μM. A sample was removed from each solution 2, 20, and 90 hours after addition of the drug and the concentrations of 5-aza-T-dCyd or 5-aza-dCyd were determined by reverse phase HPLC.

tumors = test: Anti-tumor activity of 5-aza-T-dCyd in in vivo tumor model (FIG. 6); settings: mice, q1dx9; tumor size decreased several days after end of dosing
Description: (§1) Preliminary in vivo evaluation of the anti-tumor activity of T-dCyd and 5-aza-T-dCyd in mice was also conducted (FIG. 5 and FIG. 6). T-dCyd was tested against human lung NCI-H23 (FIG. 5), and also in DLD-1 colon tumor xenografts (not shown). […] However the 9-day treatment schedule is a classical schedule for a cytotoxic anticancer agent. T-dCyd as a potential DNA hypomethylating agent has not been evaluated in tumor models.
Again, the schedule in this experiment (q1dx9) was also not designed based on the supposed mechanism of action of this agent, but was designed based on a classical cytotoxic nucleoside analog, as in the case of T-dCyd. […] This type of compound might best be used in combination with other chemotherapy as a maintenance therapy. Thus, in the clinic one could envision treatment first with cytotoxic agents to kill a large percentage of rapidly dividing tumor cells, followed by treatment with non-toxic doses of hypomethylating agents for longer time periods. In a similar vein one could envisage treatment with non-toxic DNA hypomethylating agents in chemoprevention settings.

[2] = test system: KG1a human myeloid leukemia cells; test: Incorporation into DNA in KG1a human myeloid leukemia cells (FIG. 3); type: cell-based; settings: 300 nM, 4 h of incubation
CEM leukemia cells = test: Incorporation of [5-3H]-labelled compound into DNA of CEM leukemia cells (FIG. 2); type: cell-based, human; settings: 100 nM of [5-3H]-labelled compound
Description: (§2) In particular, FIG. 2 refers to an experiment where CEM leukemia cells were incubated with 100 nM of [5-^3H]T-dCyd, [5-^3H]dCyd, [5-^3H]araC or [5-^3H]T-araC and the incorporation of compound into the DNA was determined. […] In contrast much less araC (or T-araC) was incorporated into the DNA. Although araCTP (or T araCTP) are also good substrates for DNA polymerases, they are known to inhibit subsequent DNA chain elongation and thereby inhibit DNA replication. […] The concentration of T-dCyd or araC required to inhibit CEM cell growth by 50% after 72 hours of incubation was 2.2 or 0.006 μM, respectively.

CEM cell = test: Inhibition of CEM cell growth; type: cell-based, human; settings: after 72 hours of incubation, read-out: concentration required to inhibit CEM cell growth by 50%
Description: as §2

CEM cells = test: Metabolism of dCyd or T-dCyd in CEM cells; type: in vitro ADME, human; settings: 100 nM, 1 hour
Description: The metabolites that were produced in CEM cells treated with either [5-^3H]dCyd or [5-^3H]T-dCyd were also determined (Table 1). Cells were treated with 100 nM of each compound for 1 hour and the medium and cells were extracted to determine the major metabolites that were formed. The medium was analyzed by reverse phase HPLC to measure the parent compound, deaminated product, or [^3H]-water. The acid-soluble extract was analyzed by strong anion exchange HPLC to measure the intracellular concentration of nucleotide metabolites. The radioactivity in the acid-insoluble fraction represents the amount of compound that was incorporated into DNA. […] (Note: Because dCyd was labeled at the 5 position, the [^3H] was removed from the molecule by thymidylate synthase in the process of adding a methyl group to this position. Accordingly, there will be no radioactivity in thymidine nucleotides generated from [5-^3H]dCyd).

human lung NCI-H23 = test: Anti-tumor activity against human lung NCI-H23 tumor xenografts in mice (FIG. 5); type: in vivo
Description: as §1

[3] = Maximum tolerated dose (MTD) in mice; settings: mouse, in vivo
Description: as §1

[4] = similar experiments, FIG. 1B or not shown
[5] = 1.3 mg/kg (MTD0.65), 9 day treatment, NCI-H23 tumors in mice

SMILES | half-life at 100 μM [1] | effect on DNMT1 protein level (DNMT1; [4]) | incorporation into DNA [2] | incorporation of compound into the DNA (CEM leukemia cells) | [3H] in DNA (CEM cells) | [3H] in parent compound (CEM cells) | also measured
Nc1ncn([C@H]2C[C@H](O)[C@@H](CO)S2)c(=O)n1 [5-aza-T-dCyd, 5-aza-4′-thio-2′-deoxycytidine] | 293 h |  |  |  |  |  | effect on DNMT1 protein level (DNMT1; doses as low as 0.1 μM, exposed for 72 or 96 h, FIG. 1E): complete depletion of DNMT1; effect on DNMT1 protein level (DNMT1; similar exposures for as little as 48 h, FIG. 1C): completely depleted DNMT1; stability in PBS relative to 5-aza-dCyd [1]: 5 fold; tumor growth inhibition (tumors): substantially inhibited the growth of the tumors
Nc1ncn([C@H]2C[C@H](O)[C@@H](CO)O2)c(=O)n1 [5-azadCyd, 5-aza-2′-deoxycytidine, reference compound] | 67 h | depleting DNMT1 | only a moderate amount |  |  |  | 
Nc1ccn([C@@H]2S[C@H](CO)[C@@H](O)[C@@H]2O)c(=O)n1 [T-araC, 4′-thio-arabinofuranosylcytosine, reference compound] |  | did not deplete DNMT1 |  | much less |  |  | 
Nc1ccn([C@H]2C[C@H](O)[C@@H](CO)S2)c(=O)n1 [T-dCyd, 4′-thio-2′-deoxycytidine] |  |  | rapidly incorporated to very high levels | more T-dCyd was incorporated into the DNA than dCyd | 8% of total | 90% of total | effect on DNMT1 protein level (DNMT1; 72 h at the 3 μM dose, FIG. 1D): complete depletion of DNMT1; effect on DNMT1 protein level (DNMT1; 72 hour exposure at low non-toxic doses, FIG. 1A): capable of reducing DNMT1; effect on DNMT1 protein level (DNMT1; 96 h at the 1 and 3 μM doses, FIG. 1D): complete depletion of DNMT1; pIC50 (CEM cell; Homo sapiens, CCRF-CEM): 5.66; radioactivity recovered as water in the medium, T-dUrd in the medium, or T-dUMP in the acid-soluble pool (CEM cells): none; in vivo anti-tumor activity (human lung NCI-H23; 0.9 mg/kg (MTD0.45) and 0.6 mg/kg (MTD0.3), 9 day treatment schedule): some encouraging in vivo activity; complete cures (human lung NCI-H23; [5]): 2/6; tumor growth inhibition (human lung NCI-H23; [5]): substantial growth inhibition; MTD at 9 day [3]: 2 mg/kg
Nc1ccn([C@@H]2O[C@H](CO)[C@@H](O)[C@@H]2O)c(=O)n1 [araC, arabinofuranosylcytosine, reference compound] |  | did not deplete DNMT1 |  | much less |  |  | pIC50 (CEM cell): 8.22
Nc1ccn([C@H]2C[C@H](O)[C@@H](CO)O2)c(=O)n1 [dCyd, 2′-deoxycytidine, reference compound] |  |  |  |  | 3% of total | 38% of total | 
